Reference: patent US20240238314A1, “TREATMENT OF ESSENTIAL TREMOR” (Sage Therapeutics, Inc., priority 2021, published 2024)

Test system: individuals with essential tremor
Experiment: Phase 2 placebo-controlled study, Compound 1 60 mg once daily for 28 days (reducible to 45 mg or 30 mg): TETRAS performance subscale part 4 upper limb tremor score and tremor amplitude
Format: in vivo, human
Settings: for % CFB in Tremor Amplitude: calculated from TETRAS part 4 ratings
Protocol: 4) Upper limb tremor: Tremor is assessed during three maneuvers: forward horizontal reach posture, lateral “wing beating” posture and finger-nose-finger testing. Each upper limb is assessed and scored individually. The forward horizontal reach posture is held for 5 seconds. The lateral wing beating posture is held for 20 seconds. The finger-nose-finger movement is executed three times. Amplitude assessment should be estimated using the maximally displaced point of the hand at the point of greatest displacement along any single plane. For example, the amplitude of a pure supination-pronation tremor, pivoting around the wrist would be assessed at either the thumb or fifth digit.
For all three hand tremor ratings: 0=no tremor. 1=tremor is barely visible. 1.5=tremor is visible, but less than 1 cm. 2=tremor is 1-<3 cm amplitude. 2.5=tremor is 3-<5 cm amplitude. 3=tremor is 5-<10 cm amplitude. 3.5=tremor is 10-<20 cm amplitude. 4=tremor is >20 cm amplitude.
As used herein, “The Essential Tremor Rating Assessment Scale (TETRAS) performance subscale part 4 upper limb tremor total score” refers to the “upper limb tremor” under metric or characteristic 4 of the TETRAS performance subscale set forth above. Each of the three tasks are performed on each limb to give a total of 6 tasks, wherein each task is scored 0, 1, 1.5, 2, 2.5, 3, 3.5, or 4, and each score is added to give a total score no greater than 24.
[formula] • wherein Tf is a final tremor amplitude; • Ti is an initial tremor amplitude; • Rf is a final tremor rating; • Ri is an initial tremor rating; • α is 0.05; and • N=6, for 6 tasks in TETRAS performance subscale part 4 upper limb tremor total score.
Participants were 18 to 80 years of age, inclusive, diagnosed of ET of at least 3 years duration with scores of at least 1.5 for each of the six items that comprised the combined total upper limb TETRAS (total performance subscale part 4) with the total score for the dominant upper limb (the sum of the 3 items for either the right or left upper limb, whichever is dominant) being at least 5.5, at both Screening and predose on Day 1.
Groups received either Compound 1 as orally administered tablet(s) (each tablet providing 15 mg of Compound 1) or matching placebo at 1:1 ratio. Tablets were formulated as immediate release, white to off-white, round, film-coated tablets containing 15 mg of Compound 1, filler, disintegrant, lubricant, and glidant, wherein the tablets were formed using direct compression and coated with Opadry® II white as the film coating.
Participants were randomized to receive Compound 1 60 mg or placebo once daily in the morning on a 1:1 basis. If participants reported a TEAE considered by investigator to be related to Compound 1 and not tolerable, investigator might reduce the dose of Compound 1 from 60 mg in 15 mg decrements (i.e., 60 mg, to 45 mg, to 30 mg), as medically appropriate. If intolerable TEAEs persist at the 30 mg dose, Compound 1 was permanently stopped.
This study included a Screening Period of up to 28 days, a 29-day treatment period consisting of 28 days of dosing with the end of treatment visit intended to be on Day 29 at trough, and a 14-day follow-up period relative to final dose. Study patients were not taking other medications for essential tremor during the 28-day treatment period.
The model included the change from baseline at each visit as the dependent variable, treatment, baseline TETRAS performance subscale part 4 upper limb tremor score, assessment timepoint, and timepoint-by-treatment as explanatory variables. All explanatory variables were treated as a fixed effect. The main comparison was (difference in least mean square [LSMEAN]) between Compound 1 and placebo at the 29-day timepoint.
Model-based point estimates (i.e., LSMEAN, 95% confidence intervals, and p-values) were reported where applicable. An unstructured covariance structure was used to model the within-subject errors. […]

[1] = Baseline TETRAS Upper Limb Part 4 < 12, Day 29
[2] = Baseline TETRAS Upper Limb Part 4 ≥ 12, Day 29
[3] = Baseline part 4 upper limb total score ≥ 12, Day 8
[4] = Baseline part 4 upper limb total score ≥ 12, Day 15, 5 hr postdose
[5] = Baseline part 4 upper limb total score ≥ 12, Day 15, 8 hr postdose
[6] = Baseline part 4 upper limb total score ≥ 12, Day 15, predose
[7] = Baseline part 4 upper limb total score ≥ 12, Day 22
[8] = Baseline part 4 upper limb total score ≥ 12, Day 42
[9] = Full Analysis Set, Day 15, 5 hr postdose
[10] = Full Analysis Set, Day 15, 8 hr postdose
[11] = Full Analysis Set, Day 15, predose
[12] = Per-Protocol Set, Day 15, 5 hr postdose
[13] = Per-Protocol Set, Day 15, 8 hr postdose
[14] = Per-Protocol Set, Day 15, predose

For `COC[C@@]1(O)CC[C@H]2[C@@H](CC[C@@H]3[C@@H]2CC[C@]2(C)[C@@H](C(=O)Cn4nnc(C)n4)CC[C@@H]32)C1` [Compound 1], the “LSMean (SE) CFB in TETRAS performance subscale part 4 upper limb tremor total score” value [1] was −1.06, the “LSMean Difference (CI) vs placebo in CFB in TETRAS performance subscale part 4 upper limb tremor total score” value [1] was 0.45 and the “Mean (SD) % CFB in TETRAS performance subscale part 4 upper limb tremor total score” value [1] was −7.76%. For the same compound, the “% CFB in Tremor Amplitude” value [1] was −18.40%, the “Frequency of % CFB in tremor amplitude category 15-<30%, number of participants” value [2] was 6 and the “Frequency of % CFB in tremor amplitude category 15-<30%, percent of participants” value [2] was “(28.6)”. The “Frequency of % CFB in tremor amplitude category 30-<50%, number of participants” value [2] was 2, the “Frequency of % CFB in tremor amplitude category 30-<50%, percent of participants” value [2] was “(9.5)” and the “Frequency of % CFB in tremor amplitude category 50-<75%, number of participants” value [2] was 2. The “Frequency of % CFB in tremor amplitude category 50-<75%, percent of participants” value [2] was “(9.5)”, the “Frequency of % CFB in tremor amplitude category <15%, number of participants” value [2] was 11 and the “Frequency of % CFB in tremor amplitude category <15%, percent of participants” value [2] was “(52.4)”. For the same compound, the “Frequency of % CFB in tremor amplitude category >75%, number of participants” value [2] was 0, the “Mean (SD) % CFB in TETRAS performance subscale part 4 upper limb tremor total score” value [2] was −20.47% and the “% CFB in Tremor Amplitude” value [2] was −41.00%. The “LSMean difference vs placebo in change from baseline in TETRAS performance subscale part 4 upper limb tremor total score” value [3] was −1.33, the “Model-based LSMean (SE) change from baseline in TETRAS performance subscale part 4 upper limb tremor total score” value [3] was −1.99 (0.340) and the “LSMean difference vs placebo in change from baseline in TETRAS performance subscale part 4 upper limb tremor total score” value [4] was −1.60. The “Model-based LSMean (SE) change from baseline in TETRAS performance subscale part 4 upper limb tremor total score” value [4] was −3.12 (0.449), the “LSMean difference vs placebo in change from baseline in TETRAS performance subscale part 4 upper limb tremor total score” value [5] was −1.38 and the “Model-based LSMean (SE) change from baseline in TETRAS performance subscale part 4 upper limb tremor total score” value [5] was −2.84 (0.445). The “LSMean difference vs placebo in change from baseline in TETRAS performance subscale part 4 upper limb tremor total score” value [6] was −1.37, the “Model-based LSMean (SE) change from baseline in TETRAS performance subscale part 4 upper limb tremor total score” value [6] was −2.15 (0.371) and the “LSMean difference vs placebo in change from baseline in TETRAS performance subscale part 4 upper limb tremor total score” value [7] was −1.48. The “Model-based LSMean (SE) change from baseline in TETRAS performance subscale part 4 upper limb tremor total score” value [7] was −2.56 (0.383), the “LSMean difference vs placebo in change from baseline in TETRAS performance subscale part 4 upper limb tremor total score” value (Baseline part 4 upper limb total score ≥ 12, Day 29) was −1.70 and the “LSMean difference vs placebo in change from baseline in TETRAS performance subscale part 4 upper limb tremor total score” value [8] was 0.22. For the same compound, the “Model-based LSMean (SE) change from baseline in TETRAS performance subscale part 4 upper limb tremor total score” value [8] was −1.59 (0.475), the “Percent reduction from baseline in tremor amplitude” value (Full Analysis Set) was 36 and the “LSMean difference vs placebo in change from baseline in TETRAS performance subscale part 4 upper limb tremor total score” value (Full Analysis Set, Day 8) was −0.81. The “Model-based LSMean (SE) change from baseline in TETRAS performance subscale part 4 upper limb tremor total score” value (Full Analysis Set, Day 8) was −1.67 (0.287), the “LSMean difference vs placebo in change from baseline in TETRAS performance subscale part 4 upper limb tremor total score” value [9] was −0.40 and the “Model-based LSMean (SE) change from baseline in TETRAS performance subscale part 4 upper limb tremor total score” value [9] was −2.64 (0.452). For the same compound, the “LSMean difference vs placebo in change from baseline in TETRAS performance subscale part 4 upper limb tremor total score” value [10] was −0.27, the “Model-based LSMean (SE) change from baseline in TETRAS performance subscale part 4 upper limb tremor total score” value [10] was −2.36 (0.441) and the “LSMean difference vs placebo in change from baseline in TETRAS performance subscale part 4 upper limb tremor total score” value [11] was −0.48. For the same compound, the “Model-based LSMean (SE) change from baseline in TETRAS performance subscale part 4 upper limb tremor total score” value [11] was −1.78 (0.344), the “LSMean difference vs placebo in change from baseline in TETRAS performance subscale part 4 upper limb tremor total score” value (Full Analysis Set, Day 22) was −0.77 and the “Model-based LSMean (SE) change from baseline in TETRAS performance subscale part 4 upper limb tremor total score” value (Full Analysis Set, Day 22) was −2.10 (0.360). The “Frequency of % CFB in tremor amplitude category 15-<30%, number of participants” value (Full Analysis Set, Day 29) was 5, the “Frequency of % CFB in tremor amplitude category 15-<30%, percent of participants” value (Full Analysis Set, Day 29) was “(23.8)” and the “Frequency of % CFB in tremor amplitude category 30-<50%, number of participants” value (Full Analysis Set, Day 29) was 6. For the same compound, the “Frequency of % CFB in tremor amplitude category 30-<50%, percent of participants” value (Full Analysis Set, Day 29) was “(28.6)”, the “Frequency of % CFB in tremor amplitude category 50-<75%, number of participants” value (Full Analysis Set, Day 29) was 3 and the “Frequency of % CFB in tremor amplitude category 50-<75%, percent of participants” value (Full Analysis Set, Day 29) was “(14.3)”. The “Frequency of % CFB in tremor amplitude category <15%, number of participants” value (Full Analysis Set, Day 29) was 5, the “Frequency of % CFB in tremor amplitude category <15%, percent of participants” value (Full Analysis Set, Day 29) was “(23.8)” and the “Frequency of % CFB in tremor amplitude category >75%, number of participants” value (Full Analysis Set, Day 29) was 2. The “Frequency of % CFB in tremor amplitude category >75%, percent of participants” value (Full Analysis Set, Day 29) was “(9.5)”, the “LSMean difference vs placebo in change from baseline in TETRAS performance subscale part 4 upper limb tremor total score” value (Full Analysis Set, Day 29) was −1.07 (−2.14, −0.00) and the “Mean (SD) % CFB in TETRAS performance subscale part 4 upper limb tremor total score” value (Full Analysis Set, Day 29) was −18.05%. For the same compound, the “Model-based LSMean (SE) change from baseline in TETRAS performance subscale part 4 upper limb tremor total score” value (Full Analysis Set, Day 29) was −2.31 (0.401), the “% CFB in Tremor Amplitude” value (Full Analysis Set, Day 29) was −35.80% and the “LSMean difference vs placebo in change from baseline in TETRAS performance subscale part 4 upper limb tremor total score” value (Full Analysis Set, Day 29, listed as Cmpd 1) was −1.07. For the same compound, the “LSMean difference vs placebo in change from baseline in TETRAS performance subscale part 4 upper limb tremor total score” value (Full Analysis Set, Day 42) was 0.62, the “Model-based LSMean (SE) change from baseline in TETRAS performance subscale part 4 upper limb tremor total score” value (Full Analysis Set, Day 42) was −1.23 (0.407) and the “LSMean difference vs placebo in change from baseline in TETRAS performance subscale part 4 upper limb tremor total score” value (Per-Protocol Set, Day 8) was −0.97. The “Model-based LSMean (SE) change from baseline in TETRAS performance subscale part 4 upper limb tremor total score” value (Per-Protocol Set, Day 8) was −1.78 (0.319), the “LSMean difference vs placebo in change from baseline in TETRAS performance subscale part 4 upper limb tremor total score” value [12] was −0.71 and the “Model-based LSMean (SE) change from baseline in TETRAS performance subscale part 4 upper limb tremor total score” value [12] was −2.83 (0.500). The “LSMean difference vs placebo in change from baseline in TETRAS performance subscale part 4 upper limb tremor total score” value [13] was −0.70, the “Model-based LSMean (SE) change from baseline in TETRAS performance subscale part 4 upper limb tremor total score” value [13] was −2.66 (0.500) and the “LSMean difference vs placebo in change from baseline in TETRAS performance subscale part 4 upper limb tremor total score” value [14] was −0.83. For the same compound, the “Model-based LSMean (SE) change from baseline in TETRAS performance subscale part 4 upper limb tremor total score” value [14] was −1.94 (0.367), the “LSMean difference vs placebo in change from baseline in TETRAS performance subscale part 4 upper limb tremor total score” value (Per-Protocol Set, Day 22) was −1.15 and the “Model-based LSMean (SE) change from baseline in TETRAS performance subscale part 4 upper limb tremor total score” value (Per-Protocol Set, Day 22) was −2.38 (0.408). The “LSMean difference vs placebo in change from baseline in TETRAS performance subscale part 4 upper limb tremor total score” value (Per-Protocol Set, Day 29) was −1.37, the “Model-based LSMean (SE) change from baseline in TETRAS performance subscale part 4 upper limb tremor total score” value (Per-Protocol Set, Day 29) was −2.50 (0.452) and the “LSMean difference vs placebo in change from baseline in TETRAS performance subscale part 4 upper limb tremor total score” value (Per-Protocol Set, Day 42) was 0.36. The “Model-based LSMean (SE) change from baseline in TETRAS performance subscale part 4 upper limb tremor total score” value (Per-Protocol Set, Day 42) was −1.48 (0.474) and the “Percent reduction from baseline in tremor amplitude” value (subjects with baseline TETRAS performance subscale part 4 upper limb tremor total score ≥12) was 41%.
